US11549950B2, “Cryptic metabolites and method for activating silent biosynthetic gene clusters in diverse microorganisms” (The Trustees of Princeton University, priority 2017, dated 2023)

Columns and labels:
Type in all cases: cell-based
[1] = test system: Amycolatopsis keratiniphila NRRL B24117; test: HiTES-IMS elicitor screen and validation, cryptic metabolites of A. keratiniphila; conditions: for induction of compound with m/z 1286 / elicitation of keratinimicin A (m/z 1811) synthesis / induction of compound with m/z 1425: HiTES-IMS, 502-member natural products library; for elicitation of keratinimicin A and keratinicyclin B, follow-up experiments: 7.8 μM vincamine, 2 μM Dhe, HR-MS
Protocol: (§1) In other examples, freshly-collected spores of S. canus or A. keratiniphila (˜10^7) were transferred to 50 mL YEME medium (3% (w/v) yeast extract, 5% peptone, 3% malt extract, 1% glucose, 34% sucrose, and 5 mM MgCl2.6H2O) in a 250 mL Erlenmeyer flask fitted with a stainless-steel spring and cultured at 30° C./250 rpm for 3 days. Mycelia were then collected by centrifugation (10 min, 3000 g, RT) and diluted into 300 mL of R4 medium to give a final concentration of 0.05% (w/v). R4 medium^1 consisted of 0.5% (w/v) glucose, 0.1% yeast extract, 0.5% MgCl2.6H2O, 0.2% CaCl2.2H2O, 0.15% proline, 0.118% valine, 0.28% TES, 50 mg/L casamino acid, 100 mg/L K2SO4, and 1× trace element solution, which contains 40 mg/L ZnCl2, 200 mg/L FeCl3.6H2O, 10 mg/L CuCl2.2H2O, 10 mg/L MnCl2.4H2O, 10 mg/L Na2B4O7.10H2O, and 10 mg/L (NH4)6Mo7O24.4H2O). Subsequently 300 μL were dispensed into six deep-well 96-well plates using a MultiFlo Microplate Dispenser. The wells were supplemented with candidate elicitors from the same 502-member natural products library used above with the aid of a CyBi-Well automated liquid transfer robot. Each well received 0.85 μL of an elicitor (from a stock concentration of 10 mM). The plates were sealed with air-permeable membranes and grown at 30° C./250 rpm. After 5 days, the samples were desalted as described above for P. protegens.
(§2) In one example, a laser ablation electrospray ionization (LAESI) DP1000 system (Protea Bioscience) coupled to a LTQ XL mass spectrometer (Thermo) was used for IMS analysis. The extension tube connecting the two instruments was kept at 130° C. with an external heater and the sample stage was kept at 10° C. during analysis. Sheath gas flow was set to 2.0 L/h. Eighty laser pulses were applied to each well to ablate samples using an 80% laser energy setting (˜850 μJ) and a 10 Hz frequency. A solution of 2:1 MeCN/water with 0.1% acetic acid (v/v) was supplied as the electrospray solution by a syringe pump running at a flow rate of 1 μL/min. The emitter was connected to high voltage power operating at +4000V or +4500V in positive ion detection mode. All data were visualized in ProteaPlot software.
In one example, after data collection, the signals observed in each well were extracted using GMSU-LAESI software (Gubbs, Inc), which gave all m/z values and the corresponding intensities per well (i.e. per elicitor). The data were binned in 1 m/z units for 3D-plotting. Signals with an intensity lower than a set threshold were not included in the 3D plots. The data were plotted in MatLab using the bar3 function. The component 2D plots were extracted from the corresponding 3D data in MatLab and plotted in Excel. The 2D plots were normalized to the highest intensity peak. Each signal was correlated with an elicitor.
Application of HiTES-IMS to Rare Actinomycetes. The disclosed approach was also applied to rare actinomycetes, a group of bacteria that account for some structurally fascinating and functionally potent metabolites, including the antibiotic of-last-resort vancomycin as well as the anticancer agent calicheamicin. Rare actinomycetes are an ideal test case for HiTES-IMS because in addition to their abundance of silent BGCs, they are difficult to manipulate genetically, thus all but precluding transcriptional reporter assays. Amycolatopsis keratiniphila NRRL B24117 were chosen as a test case. Its genome has not been sequenced, but efforts to find further BGCs that encode glycopeptide antibiotics (GPAs) using PCR had shown that it contains a vancomycin-like BGC, though a product has not yet been reported. A. keratiniphila was subjected to HiTES-IMS and obtained the metabolome shown, focusing on the mass range of typical GPAs (FIG. 9A). […] Additionally, a compound with m/z 1425 was induced by similar elicitors, including galangin and evodiamine (FIG. 10B). […]

[2] = test system: Pseudomonas protegens Pf-5; test: HiTES-IMS elicitor screen and flask validation, orfamide production; conditions: for elicitation of orfamide production: HiTES-IMS, 502-member natural products library, 96-well plates
Protocol: In one example, P. protegens was streaked out onto an LB-agar plate from frozen culture stocks and grown at 30° C. overnight. Colonies were used to inoculate 5 mL of LB in a 14 mL sterile culture tube, which was cultured 12-13 h at 30° C./250 rpm. The overnight culture was then used to inoculate 550 mL LB in a sterile Erlenmeyer flask to an initial optical density at 600 nm (OD600 nm) of 0.01. The culture was distributed into six sterile, deep-well 96-well plates (0.9 mL per well) using a MultiFlo Microplate Dispenser (BioTek). Subsequently, elicitors were added from a commercially-available 502-member natural products library (Enzo Scientific, cat #BML-2865) using a CyBi-Well automated liquid transfer robot (CyBio). Each well received 2.5 μL of an elicitor (from a stock concentration of 10 mM). The plates were sealed with air-permeable membranes and grown at 25° C./200 rpm. After 44 h, the plates were spun down, supernatants loaded onto a 96-well Strata C8-resin (Phenomenex), and the material eluted with 600 μL of 50% and 600 μL 100% MeCN into fresh 96 well plates. The eluates were then dried in a speedvac and resuspended in 30 μL of 40% MeCN (in water).
In one example, a laser ablation electrospray ionization (LAESI) DP1000 system (Protea Bioscience) coupled to a LTQ XL mass spectrometer (Thermo) was used for IMS analysis. The extension tube connecting the two instruments was kept at 130° C. with an external heater and the sample stage was kept at 10° C. during analysis. Sheath gas flow was set to 2.0 L/h. […]
As another example, Orfamides are lowly-expressed metabolites isolated from Pseudomonas protegens Pf-5 (hereafter P. protegens). […] The resulting metabolomes were analyzed using laser ablation-coupled electrospray ionization MS (LAESI-MS), an emerging method in which a mid-IR laser beam generates an ablation plume of metabolites that are ionized by an electrospray and introduced into the mass spectrometer. […] No signals were detected below m/z 1250 and above m/z 1650. […]

[3] = test system: Amycolaptopsis sp. B-24117; test: LAESI-MS elicitor screen (FIG. 20); conditions: concentration of 30 μM each
Protocol: In another example, to commence a screen, Amycolaptopsis sp. B-24117 spore stocks were used to inoculate 100 mL of R4 medium in a 500 mL Erlenmeyer flask (approx. 10^6 spores). These were grown overnight and then dispensed into 5×95 CORNING® COSTAR® 96 well cell culture plates using a BioTek MULTIFLO™ microplate dispenser. 150 μL was dispensed into each well, which were then supplemented with each 1 μL from the Natural Products small molecule library (Enzo Scientific). The plates were grown again at 30° C. and 250 rpm for 4 days before being imaged using a Laser Ablation Electrospray Mass Spectrometer (LAESI-MS), which consisted of a Protea Biosciences LAESI® DP-1000 module coupled to a THERMO SCIENTIFIC™ LTQ mass spectrometer. Imaging of each plate was conducted as per manufacturer instructions using 1:1 MeCN/water at a flow rate of 1 μL/min to ablate the samples into the mass spectrometer. The spectrum was collected for 8 seconds per well. The data were then analyzed using ProteaPlot software, searching for mass ions that were induced by elicitors and absent in untreated samples. Referring to FIG. 20, this led to identification of a mass ion (reference 230, m/s 1810, keratinimicin A).

[4] = test system: Streptomyces canus NRRL B3980; test: HiTES-IMS elicitor screen and flask validation, cryptic metabolites of S. canus
Protocol: as §1, §2
In one example, after data collection, the signals observed in each well were extracted using GMSU-LAESI software (Gubbs, Inc), which gave all m/z values and the corresponding intensities per well (i.e. per elicitor). The data were binned in 1 m/z units for 3D-plotting. […]
Application of HiTES-IMS to Streptomycetes. […] Three clusters of peaks, representing three compound families appeared to be elicited: compounds were detected with m/z ranging from 1260-1295, which further analysis identified as the amphomycins. […] A second set of induced compounds was also detected with m/z ranging from 1220-1245. […]

[5] = HiTES-IMS, 502-member natural products library

`CC[C@H]1[C@@H]2C[C@H]3[C@@H]4N(C)c5ccccc5[C@]45C[C@@H]([C@H]2[C@H]5O)N3[C@@H]1O` [ajmaline] was tested, and the “induction of compound with m/z 1286” value [1] was “induced”.

`C[C@@]12CCc3occc3[C@H]1CC[C@@]13C[C@@H](CC[C@H]12)[C@@](O)(CO)C3` [cafestol] was tested, and the “elicitation of orfamide production” value [2] was “Optimal production” and the “induction of orfamide A” value ([2]; flask cultures, HPLC-MS, 22 μM) was “stimulatory activity was further confirmed”.

In the case of `CC(C)[C@@]1(NC(=O)[C@@H]2C[C@@H]3c4cccc5[nH]cc(c45)C[C@H]3N(C)C2)O[C@@]2(O)[C@@H]3CCCN3C(=O)[C@H](Cc3ccccc3)N2C1=O` [dihydroergocristine], the “elicitation of keratinimicin A and keratinicyclin B, follow-up experiments” value [1] is reported as “strong stimulatory activity”, the “elicitation of keratinimicin A (m/z 1811) synthesis” value [1] is reported as “most effective elicitors” and the “elicitation of mass ion m/s 1810, keratinimicin A” value [3] is reported as “best elicitors”.

With `O=c1c(O)c(-c2ccccc2)oc2cc(O)cc(O)c12` [galangin] the “induction of compound with m/z 1286” value [1] was “induced” and the “induction of compound with m/z 1425” value [1] was “induced”.

In the case of `O=C1Cc2c([nH]c3ccc(Br)cc23)-c2ccccc2N1` [kenpaullone], the “elicitation of canucin A (m/z 1579) synthesis” value [4, 5] is reported as “most effective elicitor” and the “induction of canucin A and B” value ([4]; validation, flask cultures, 17 μM) is reported as “strong induction”.

For `O=c1c(O)c(-c2ccc(O)cc2O)oc2cc(O)cc(O)c12` [morin], the “elicitation of amphomycins (m/z 1260-1295)” value [4, 5] was “best elicitors”.

For `C=C[C@H]1C[N@@]2CC[C@H]1C[C@H]2[C@H](O)c1ccnc2ccc(OC)cc12` [quinine], the “elicitation of amphomycins (m/z 1260-1295)” value [4, 5] was “best elicitors”.

With `O=C1c2ccccc2-n2c1nc1ccccc1c2=O` [tryptanthrin] the “elicitation of mass ion m/s 1810, keratinimicin A” value [3] was “best elicitors”.

With `CC[C@]12CCCN3CCc4c(n(c5ccccc45)[C@@](O)(C(=O)OC)C1)[C@@H]32` [vincamine] the “elicitation of keratinimicin A and keratinicyclin B, follow-up experiments” value [1] was “strong stimulatory activity” and the “elicitation of keratinimicin A (m/z 1811) synthesis” value [1] was “most effective elicitors”.

With `CCC1=C[C@@H]2CN(C1)Cc1c([nH]c3ccccc13)[C@@](C(=O)OC)(c1cc3c(cc1OC)N(C)[C@H]1[C@@](O)(C(=O)OC)[C@H](OC(C)=O)[C@]4(CC)C=CCN5CC[C@]31[C@@H]54)C2` [vinorelbine] the “elicitation of orfamide production” value [2] was “Optimal production”.

evodiamine was tested, and the “induction of compound with m/z 1286” value [1] was “induced” and the “induction of compound with m/z 1425” value [1] was “induced”.
